Experimental findings from PubChem BioAssay (NCI) are described below.

Test systems include KM20L2 colon; RXF-631 renal; DLD-1 colon; XF 498 CNS.
Holding throughout (test): NCI tumour cell line growth inhibition, 48 h

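Following 48 hours of exposure in 96-well plates, responses at five concentrations were used to interpolate endpoints linearly. TGI marks complete inhibition of growth.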

For the molecule `COc1ccc2c(c1)C=C(C(C)(C)C)NS2(=O)=O`, the TGI in the test with KM20L2 colon, with RXF-631 renal and in the test with DLD-1 colon was greater than 100 µM throughout.
Take `CC(c1ccccc1)C(O)S(=O)(=O)O` (centres undefined): the TGI in the test with XF 498 CNS, in the test on KM20L2 colon and with RXF-631 renal was greater than 100 µM in each case.
As to `COc1ccc2c(c1)c(=O)c1c(NCCCN(C)C)ccc3ncn2c31`, the TGI with XF 498 CNS is 18.9 µM; with KM20L2 colon, 17.1 µM; with DLD-1 colon, 17.8 µM.
